Experimental data taken from the CheMixHub viscosity set.

Experiment: xn = mol fraction of the nth substance listed

CCCCOCCOCCOCCO + ClC=C(Cl)Cl
298.15 K, 101.33 kPa
Conditions | viscosity [mPa·s]
x1 = 0.008 | 0.55
x1 = 0.0207 | 0.583
x1 = 0.0326 | 0.62
x1 = 0.0484 | 0.671
x1 = 0.0692 | 0.742
x1 = 0.0868 | 0.809
x1 = 0.1122 | 0.913
x1 = 0.1472 | 1.064
x1 = 0.1817 | 1.242
x1 = 0.2132 | 1.421
x1 = 0.2487 | 1.641
x1 = 0.2772 | 1.839
x1 = 0.3104 | 2.088
x1 = 0.3418 | 2.329
x1 = 0.3841 | 2.663
x1 = 0.4202 | 2.968
x1 = 0.4555 | 3.288
x1 = 0.4882 | 3.585
x1 = 0.5244 | 3.929
x1 = 0.5826 | 4.489
x1 = 0.6409 | 5.1
x1 = 0.6866 | 5.591
x1 = 0.7428 | 6.2
x1 = 0.8128 | 6.968
x1 = 0.8883 | 7.84
x1 = 0.9261 | 8.238
x1 = 0.967 | 8.732
x2 = 0.0136 | 8.939

COc1ccc2cc([C@H](C)C(=O)O)ccc2c1 + CC#N
101 kPa
Conditions | viscosity [mPa·s]
297.93 K, x1 = 0.000702 | 0.3571
297.96 K, x1 = 0.000233 | 0.3546
298.01 K, x1 = 0.001151 | 0.3583
298.04 K, x1 = 0.001587 | 0.3603
298.07 K, x1 = 0.002732 | 0.364
301.61 K, x1 = 0.001151 | 0.3461
301.69 K, x1 = 0.000233 | 0.3425
301.69 K, x1 = 0.001587 | 0.3476
301.7 K, x1 = 0.000702 | 0.344
301.75 K, x1 = 0.002732 | 0.351
303.56 K, x1 = 0.001151 | 0.3398
303.58 K, x1 = 0.002732 | 0.3453
303.65 K, x1 = 0.000233 | 0.3359
303.66 K, x1 = 0.001587 | 0.342
303.69 K, x1 = 0.000702 | 0.3371
305.66 K, x1 = 0.000233 | 0.3303
305.66 K, x1 = 0.001151 | 0.3329
305.7 K, x1 = 0.002732 | 0.3376
305.71 K, x1 = 0.000702 | 0.331
305.71 K, x1 = 0.001587 | 0.3347
308.62 K, x1 = 0.001151 | 0.324
308.64 K, x1 = 0.001587 | 0.3252
308.71 K, x1 = 0.000233 | 0.3206
308.75 K, x1 = 0.002732 | 0.3279
308.76 K, x1 = 0.000702 | 0.322
311.62 K, x1 = 0.001151 | 0.3149
311.63 K, x1 = 0.001587 | 0.3163
311.68 K, x1 = 0.002732 | 0.3191
311.69 K, x1 = 0.000233 | 0.3119
311.72 K, x1 = 0.000702 | 0.3132

CC(=O)c1ccc(C)cc1 + CN(C)c1ccccc1
viscosity [mPa·s], 101 kPa
Conditions | 303.15 K | 308.15 K
x2 = 0.0481 | 1.541 | 1.493
x2 = 0.0942 | 1.512 | 1.462
x2 = 0.1558 | 1.478 | 1.428
x2 = 0.2311 | 1.442 | 1.39
x2 = 0.2972 | 1.411 | 1.359
x2 = 0.3584 | 1.382 | 1.33
x2 = 0.4254 | 1.356 | 1.303
x2 = 0.4949 | 1.331 | 1.275
x2 = 0.5492 | 1.31 | 1.252
x2 = 0.5964 | 1.295 | 1.234
x2 = 0.6887 | 1.264 | 1.204
x2 = 0.7635 | 1.24 | 1.181
x2 = 0.8596 | 1.213 | 1.149

C[N+](=O)[O-] + CC(C)O
viscosity [mPa·s]
Conditions | 293.15 K | 298.15 K | 303.15 K | 313.15 K
101 kPa, x1 = 0.1361 | – | 1.599 | – | –
101 kPa, x1 = 0.2622 | – | 1.267 | – | –
101 kPa, x1 = 0.3785 | – | 1.025 | – | –
101 kPa, x1 = 0.4866 | – | 0.8807 | – | –
101 kPa, x1 = 0.5871 | – | 0.7784 | – | –
101 kPa, x1 = 0.6805 | – | 0.7133 | – | –
101 kPa, x1 = 0.7685 | – | 0.6771 | – | –
101 kPa, x1 = 0.8503 | – | 0.6562 | – | –
101 kPa, x1 = 0.9277 | – | 0.6386 | – | –
101.33 kPa, x2 = 0.0502 | 0.629 | – | 0.561 | 0.504
101.33 kPa, x2 = 0.1001 | 0.624 | – | 0.552 | 0.494
101.33 kPa, x2 = 0.1501 | 0.623 | – | 0.55 | 0.49
101.33 kPa, x2 = 0.2003 | 0.633 | – | 0.554 | 0.491
101.33 kPa, x2 = 0.25 | 0.649 | – | 0.564 | 0.496
101.33 kPa, x2 = 0.3 | 0.672 | – | 0.579 | 0.507
101.33 kPa, x2 = 0.35 | 0.701 | – | 0.597 | 0.518
101.33 kPa, x2 = 0.4001 | 0.731 | – | 0.616 | 0.535
101.33 kPa, x2 = 0.4501 | 0.772 | – | 0.647 | 0.552
101.33 kPa, x2 = 0.5 | 0.817 | – | 0.679 | 0.574
101.33 kPa, x2 = 0.55 | 0.868 | – | 0.716 | 0.601
101.33 kPa, x2 = 0.6 | 0.927 | – | 0.758 | 0.639
101.33 kPa, x2 = 0.65 | 1 | – | 0.811 | 0.673
101.33 kPa, x2 = 0.7 | 1.082 | – | 0.867 | 0.71
101.33 kPa, x2 = 0.75 | 1.182 | – | 0.937 | 0.764
101.33 kPa, x2 = 0.8 | 1.326 | – | 1.044 | 0.837
101.33 kPa, x2 = 0.85 | 1.485 | – | 1.154 | 0.917
101.33 kPa, x2 = 0.9 | 1.698 | – | 1.302 | 1.023
101.33 kPa, x2 = 0.95 | 1.988 | – | 1.503 | 1.159

[Br-].[Br-].[Br-].[Sb+3] + Nc1ccccc1
323.15 K, 101 kPa
Conditions | viscosity [mPa·s]
x1 = 0.1 | 6.997
x1 = 0.25 | 182.4
x1 = 0.333 | 2175
x1 = 0.4 | 7012
x1 = 0.45 | 20680
x1 = 0.47 | 23030
x1 = 0.49 | 24420
x1 = 0.5 | 24690
x1 = 0.51 | 20780
x1 = 0.53 | 16040
x1 = 0.55 | 7888
x1 = 0.6 | 3022
x1 = 0.75 | 272.9

C[N+](=O)[O-] + COC(C)=O
298.15 K, 101 kPa
Conditions | viscosity [mPa·s]
x1 = 0.1415 | 0.4094
x1 = 0.271 | 0.4445
x1 = 0.3891 | 0.4757
x1 = 0.498 | 0.5048
x1 = 0.5977 | 0.5313
x1 = 0.6903 | 0.5553
x1 = 0.7763 | 0.5776
x1 = 0.8562 | 0.5968
x1 = 0.9303 | 0.6147

CCCCC(CC)COP(=O)(O)OCC(CC)CCCC (stereo unspecified) + Cc1ccccc1C
viscosity [mPa·s], 101 kPa
Conditions | x1 = 0.1 | x1 = 0.2 | x1 = 0.398 | x1 = 0.606 | x1 = 0.796 | x1 = 0.9
303.15 K | 1.039 | 2.217 | 8.93 | 29.43 | 77.84 | 124.5
308.15 K | 0.981 | 2.056 | 7.798 | 24.38 | 61.89 | 96.93
313.15 K | 0.915 | 1.88 | 6.923 | 20.18 | 48.95 | 76.04
318.15 K | 0.867 | 1.743 | 5.965 | 18.03 | 41.55 | 63.57
